Measured values from patent US10508120B2, “TYK2 inhibitors and uses thereof” (Nimbus Lakshmi, Inc., priority 2017, dated 2019).

Legend:
[1] = biological target: human TYK2 (JH2domain-pseudokinase) (Homo sapiens (Human), UniProt P29597); test: TYK2 JH2 Domain Binding Assay (KINOMEscan)
Summary of the method: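 Displacement of a DNA-tagged TYK2 JH2 fusion (human, aa G556–D888, HEK293 extract, <0.1 nM) from ligand-coated beads over 1 h at RT; binding buffer PBS/0.05% Tween 20/10 mM DTT/0.1% BSA.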

Tyk2 kinase domain (DH1) = Tyk2 kinase domain (DH1) (Homo sapiens (Human), UniProt P29597); test: Tyk2 Radioactive Kinase Assay; assay type: biochemical; conditions: compound at 10 μM, ATP 10 μM; for inhibition at 10 µM: read-out: Tyk2 JH1% Inhibition @ 10 μM
Tyk2 kinase domain (DH1), sequence (P29597 897-1176): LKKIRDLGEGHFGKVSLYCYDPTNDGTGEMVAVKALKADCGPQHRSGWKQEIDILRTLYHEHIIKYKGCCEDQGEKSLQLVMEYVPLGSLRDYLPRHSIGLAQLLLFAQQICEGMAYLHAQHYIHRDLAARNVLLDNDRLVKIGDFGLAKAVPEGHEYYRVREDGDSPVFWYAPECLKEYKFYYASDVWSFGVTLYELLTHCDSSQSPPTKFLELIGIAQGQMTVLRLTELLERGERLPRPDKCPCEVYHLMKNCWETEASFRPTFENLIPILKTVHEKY
Summary of the method: (§1)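 Read-out is percent inhibition from a radioactive kinase reaction, measured with compound at 10 μM.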

JAK2 kinase domain (JH1) = JAK2 kinase domain (JH1) (Homo sapiens (Human), UniProt O60674); test: JAK2 Radioactive Kinase Assay; assay type: biochemical; conditions: compound at 10 μM, ATP 10 μM; for inhibition at 10 µM: read-out: JAK2 JH1% Inhibition @ 10 μM
JAK2 kinase domain (JH1), sequence (O60674 849-1124): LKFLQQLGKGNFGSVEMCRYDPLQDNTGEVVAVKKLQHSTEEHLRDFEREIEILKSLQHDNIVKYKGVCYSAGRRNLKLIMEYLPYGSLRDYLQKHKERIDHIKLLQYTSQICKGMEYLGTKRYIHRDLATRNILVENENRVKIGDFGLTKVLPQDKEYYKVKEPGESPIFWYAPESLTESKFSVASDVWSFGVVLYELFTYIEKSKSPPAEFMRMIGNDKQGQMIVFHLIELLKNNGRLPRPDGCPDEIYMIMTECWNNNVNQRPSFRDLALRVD
Summary of the method: as §1

human TYK2 (JH2domain-pseudokinase), sequence (P29597 556-888): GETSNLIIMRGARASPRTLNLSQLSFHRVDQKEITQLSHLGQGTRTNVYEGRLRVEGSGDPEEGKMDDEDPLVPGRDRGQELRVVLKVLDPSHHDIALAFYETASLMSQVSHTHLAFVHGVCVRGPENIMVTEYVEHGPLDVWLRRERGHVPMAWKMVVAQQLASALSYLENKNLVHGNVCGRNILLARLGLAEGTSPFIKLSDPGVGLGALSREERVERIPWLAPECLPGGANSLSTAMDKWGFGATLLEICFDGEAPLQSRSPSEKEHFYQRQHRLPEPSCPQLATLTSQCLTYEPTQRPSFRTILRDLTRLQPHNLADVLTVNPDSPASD

SMILES	Kd [1]	inhibition at 10 µM (Tyk2 kinase domain (DH1))	inhibition at 10 µM (JAK2 kinase domain (JH1))	Tyk2 JH1% Inhibition @ 10 μM (Tyk2 kinase domain (DH1))	JAK2 JH1% Inhibition @ 10 μM (JAK2 kinase domain (JH1))
CNc1cc(Nc2cccn(-c3cnn(C)c3)c2=O)nc2c(C(=O)NC[C@H](C)CO)cnn12 [I-668]	< 0.2 nM	< 50%	< 50%		
CNc1cc(Nc2cccn([C@@H]3CCCC[C@@H]3O)c2=O)nc2c(C(=O)NC3CC3)cnn12 [I-671]	< 0.2 nM	< 50%	< 50%		
CNc1cc(Nc2cccn(-c3ncc(OC)cc3F)c2=O)nc2c(C(=O)NC3CC3)cnn12 [I-672]	< 0.2 nM	< 50%	< 50%		
CNc1cc(Nc2cccn(C3CCOCC3)c2=O)nc2c(C(=O)N[C@@H]3COC[C@@H]3O)cnn12 [I-674]	0.2 to 1 nM	< 50%	< 50%		
CNc1cc(-c2cn(CCN3CCOCC3)c3ncccc23)nc2c(C(=O)N[C@@H]3CC[C@@H]3O)cnn12 [I-678]	0.2 to 1 nM	< 50%	< 50%		
CNc1cc(Nc2cccn(-c3ccccn3)c2=O)nc2c(C(=O)NCC3(CO)CC3)cnn12 [I-684]	0.2 to 1 nM	< 50%	< 50%		
CNc1cc(Nc2cccn([C@H]3CCN(C)C[C@H]3F)c2=O)nc2c(C(=O)NC3CC3)cnn12 [I-687]	0.2 to 1 nM			A (percent inhibition at 10 μM lower than 50)	A (percent inhibition at 10 μM lower than 50)
CNc1cc(Nc2cccn([C@@H]3CCN(C)C[C@@H]3F)c2=O)nc2c(C(=O)NC3CC3)cnn12 [I-688]	< 0.2 nM	< 50%	< 50%		
CNc1cc(Nc2cccn(C3CCN(C)CC3)c2=O)nc2c(C(=O)N[C@H]3CC[C@H]3O)cnn12 [I-689]	0.2 to 1 nM	< 50%	< 50%		
CNc1cc(Nc2cccn(C3CCN(C)CC3)c2=O)nc2c(C(=O)N[C@@H]3CC[C@@H]3O)cnn12 [I-690]	1 to 10 nM			A (percent inhibition at 10 μM lower than 50)	A (percent inhibition at 10 μM lower than 50)
CNc1cc(Nc2cccc([C@H]3CCCOC3)n2)nc2c(C(=O)N[C@H]3COC[C@H]3O)cnn12 [I-692]	< 0.2 nM	< 50%	< 50%		
CNc1cc(Nc2cccn([C@H]3CCCOC3)c2=O)nc2c(C(=O)N[C@@H]3CC[C@@H]3O)cnn12 [I-696]	< 0.2 nM	< 50%	< 50%		
CNc1cc(Nc2cccn([C@H]3CCCOC3)c2=O)nc2c(C(=O)NCC3(CO)CC3)cnn12 [I-699]	< 0.2 nM	< 50%	< 50%		
CNc1cc(Nc2cccn(-c3nc(C)co3)c2=O)nc2c(C(=O)N[C@H]3CC[C@H]3O)cnn12 [I-707]	< 0.2 nM	< 50%	< 50%		
CNc1cc(Nc2cccc(N3CCC34COC4)n2)nc2c(C(=O)NC3CC3)cnn12 [I-708]	< 0.2 nM	< 50%	< 50%		
CNc1cc(Nc2cc(Cl)cn(C3CCOCC3)c2=O)nc2c(C(=O)N[C@@H]3CC[C@@H]3O)cnn12 [I-713]	< 0.2 nM	< 50%	< 50%		
CNc1cc(Nc2cccc(N3CCC4(CCCO4)CC3)n2)nc2c(C(=O)N[C@@H]3CC[C@@H]3O)cnn12 [I-720]	1 to 10 nM			A (percent inhibition at 10 μM lower than 50)	A (percent inhibition at 10 μM lower than 50)

Continued, in another order:

Kd [1]	inhibition at 10 µM (Tyk2 kinase domain (DH1))	inhibition at 10 µM (JAK2 kinase domain (JH1))	SMILES	Tyk2 JH1% Inhibition @ 10 μM (Tyk2 kinase domain (DH1))	JAK2 JH1% Inhibition @ 10 μM (JAK2 kinase domain (JH1))
< 0.2 nM	< 50%	< 50%	CNc1cc(Nc2cccn(-c3cnn(C)c3)c2=O)nc2c(C(=O)NC[C@@H](C)CO)cnn12 [I-669]		
< 0.2 nM	< 50%	< 50%	CNc1cc(Nc2cccc(N3CCCC3=O)n2)nc2c(C(=O)N[C@@H]3CC[C@@H]3O)cnn12 [I-679]		
0.2 to 1 nM	< 50%	< 50%	CNc1cc(Nc2cccn(-c3ccccn3)c2=O)nc2c(C(=O)NCC(C)CO)cnn12 (stereo not drawn) [I-682]		
< 0.2 nM	< 50%	< 50%	CNc1cc(Nc2cccn(-c3ccccn3)c2=O)nc2c(C(=O)NCC(C)(C)CO)cnn12 [I-683, N-(3-hydroxy-2,2-dimethylpropyl)-7-(methylamino)-5-((2-oxo-2H-[1,2′-bipyridin]-3-yl)amino)pyrazolo[1,5-a]pyrimidine-3-carboxamide]		
0.2 to 1 nM	< 50%	< 50%	CNc1cc(Nc2cccn([C@@H]3CCN(C)C[C@H]3F)c2=O)nc2c(C(=O)NC3CC3)cnn12 [I-686]		
1 to 10 nM			CNc1cc(Nc2cccc([C@H]3CCCOC3)n2)nc2c(C(=O)N[C@@H]3COC[C@@H]3O)cnn12 [I-691]	A (percent inhibition at 10 μM lower than 50)	A (percent inhibition at 10 μM lower than 50)
< 0.2 nM	< 50%	< 50%	CNc1cc(Nc2cccc([C@H]3CCCOC3)n2)nc2c(C(=O)NC3COCC3O)cnn12 (stereo partly drawn) [I-695, N-(4-hydroytetrahydrofuran-3-yl)-7-(methylamino)-5-((6-((R)-tetrahydro-2H-pyran-3-yl)pyridin-2-yl)amino)pyrazolo[1,5-a]pyrimidine-3-carboxamide]		
< 0.2 nM	< 50%	< 50%	CNc1cc(Nc2cccn([C@H]3CCCOC3)c2=O)nc2c(C(=O)N[C@H]3CC[C@@H]3O)cnn12 [I-697]		
< 0.2 nM	< 50%	< 50%	CNc1cc(Nc2cccn([C@@H]3CCCOC3)c2=O)nc2c(C(=O)N[C@H]3CC[C@@H]3O)cnn12 [I-698]		
0.2 to 1 nM	< 50%	< 50%	CNc1cc(Nc2cccn([C@@H]3CCCOC3)c2=O)nc2c(C(=O)NCC3(CO)CC3)cnn12 [I-700]		
< 0.2 nM	< 50%	< 50%	CNc1cc(Nc2cccn([C@@H]3CCCOC3)c2=O)nc2c(C(=O)N[C@H]3CCC[C@H](O)C3)cnn12 [I-703]		
< 0.2 nM	< 50%	< 50%	CNc1cc(Nc2cccn(-c3ccccn3)c2=O)nc2c(C(=O)N[C@H]3CC[C@@H]3O)cnn12 [I-705]		
< 0.2 nM	< 50%	< 50%	CNc1cc(Nc2cccn(-c3cnco3)c2=O)nc2c(C(=O)NC3CC3)cnn12 [I-714]		
< 0.2 nM	< 50%	< 50%	CNc1cc(Nc2cccn(-c3cnc(C)o3)c2=O)nc2c(C(=O)NC3CC3)cnn12 [I-717]		
< 0.2 nM	< 50%	< 50%	CNc1cc(Nc2cccn(-c3cnn(C)c3F)c2=O)nc2c(C(=O)N[C@H]3C[C@H]3F)cnn12 [I-719]		
< 0.2 nM	< 50%	< 50%	CNc1cc(Nc2cccc(N3CCC4(CCCO4)CC3)n2)nc2c(C(=O)N[C@H]3CC[C@H]3O)cnn12 [I-721]		
